# Source: patent US12083156B1, “Extracts derived from laser-irradiated rhizome of curcuma longa having enhanced antimicrobial activity” (KING FAISAL UNIVERSITY, priority 2023, dated 2024)
# Assays:
# Experiment in all cases: Antimicrobial bioassay, inhibition zone
# Type in all cases: cell-based
# MRSA = settings: Staphylococcus aureus, extracts 5 mg/L, Imipenem 10 μg, mean of nine replicate plates
# Method: (§1) Each of the mean measurements was obtained from the average of nine replicate plates. The test solution positive control was 10 μg Imipenem. Three Curcuma longa extracts (5 mg/L) were prepared from ethanolic rhizome extracts as well as the control.
# Bacillus sp. = settings: extracts 5 mg/L, Imipenem 10 μg, mean of nine replicate plates
# Method: as §1
# E. coli = settings: Escherichia coli; extracts 5 mg/L; Imipenem 10 μg; mean of nine replicate plates
# Method: as §1
# S. aureus = settings: Staphylococcus aureus; extracts 5 mg/L; Imipenem 10 μg; mean of nine replicate plates
# Method: as §1
compound,measurement,setting,value
C[C@@H](O)[C@H]1C(=O)N2C(C(=O)O)=C(SCCN=CN)C[C@H]12 [Imipenem],zone of inhibition at 10 µg/disc,MRSA,25 mm
same,zone of inhibition at 10 µg/disc,Bacillus sp.,19 mm
same,zone of inhibition at 10 µg/disc,E. coli,20 mm
same,zone of inhibition at 10 µg/disc,S. aureus,18 mm
